Data taken from ChEMBL document CHEMBL3885861, “Open TG-GATES”.

Organism: Rattus norvegicus
Experiment: Open TG-GATES - Regimen: Single
Type: toxicity, organism-based, Sprague-Dawley
Parameters: regimen Single, gender Male, age 6 weeks
Details: in vivo, po, 100 mg/kg, route gavage, dose level Low; for APTT / Bas / Eos / Fbg / Hb / Ht / Lym / MCH / MCHC / MCV / Mono / Neu / PT / Plat / RBC / Ret / WBC: tissue Blood; for KIDNEY_L / KIDNEY_R / KIDNEY_TOTAL: tissue Kidney; for LIVER: tissue Liver; for A/G / ALP / ALT / AST / BUN / CRE / Ca / Cl / DBIL / GLC / IP / K / LDH / Na / PL / RALB / TBIL / TC / TG / TP / gamma-GTP: tissue Plasma

Question: What does the source list for `CCC1(c2ccccc2)C(=O)NC(=O)NC1=O` [PHENOBARBITAL]?
Answer: TERMINAL_BW (3 h): 225.5 g; APTT (3 h): 20.6 s; Bas (3 h): 0%; Eos (3 h): 1%; Fbg (3 h): 220.6 mg/dL; Hb (3 h): 13.7 g/dL; Ht (3 h): 37.8%; Lym (3 h): 76.6%; MCH (3 h): 22.2 pg; MCHC (3 h): 36.1%; MCV (3 h): 61.3 fL; Mono (3 h): 3.4%; Neu (3 h): 18.2%; PT (3 h): 12 s; Plat (3 h): 126.2 x10_4/uL; RBC (3 h): 616.6 x10_4/ul; Ret (3 h): 7.8%; WBC (3 h): 85.2 x10_2/uL; KIDNEY_L (3 h): 1 g; KIDNEY_R (3 h): 1 g; KIDNEY_TOTAL (3 h): 2.1 g; LIVER (3 h): 10.1 g; A/G (3 h): 1.6; ALP (3 h): 991 IU/L; ALT (3 h): 33.4 IU/L; AST (3 h): 67.4 IU/L; BUN (3 h): 8.4 mg/dL; CRE (3 h): 0.3 mg/dL; Ca (3 h): 10.7 mg/dL; Cl (3 h): 101.4 meq/L; DBIL (3 h): 0.064 mg/dL; GLC (3 h): 179.4 mg/dL; IP (3 h): 9.7 mg/dL; K (3 h): 4.4 meq/L; LDH (3 h): 168.4 IU/L; Na (3 h): 139.8 meq/L; PL (3 h): 156.6 mg/dL; RALB (3 h): 3.3 g/dL; TBIL (3 h): 0.1 mg/dL; TC (3 h): 83.4 mg/dL; TG (3 h): 83.8 mg/dL; TP (3 h): 5.3 g/dL; gamma-GTP (3 h): 1 IU/L; TERMINAL_BW (6 h): 222.4 g; APTT (6 h): 18 s; Bas (6 h): 0.2%; Eos (6 h): 0.8%; Fbg (6 h): 237.8 mg/dL; Hb (6 h): 13.7 g/dL; Ht (6 h): 37.9%; Lym (6 h): 79.8%; MCH (6 h): 21.4 pg; MCHC (6 h): 36.2%; MCV (6 h): 59 fL; Mono (6 h): 3.4%; Neu (6 h): 15%; PT (6 h): 11.8 s; Plat (6 h): 124.2 x10_4/uL; RBC (6 h): 643 x10_4/ul; Ret (6 h): 8.1%; WBC (6 h): 90.7 x10_2/uL; KIDNEY_L (6 h): 1 g; KIDNEY_R (6 h): 0.9 g; KIDNEY_TOTAL (6 h): 1.9 g; LIVER (6 h): 9.4 g; A/G (6 h): 1.6; ALP (6 h): 1012 IU/L; ALT (6 h): 31.8 IU/L; AST (6 h): 64.8 IU/L; BUN (6 h): 7.6 mg/dL; CRE (6 h): 0.4 mg/dL; Ca (6 h): 10.7 mg/dL; Cl (6 h): 100.4 meq/L; DBIL (6 h): 0.074 mg/dL; GLC (6 h): 191.8 mg/dL; IP (6 h): 10.1 mg/dL; K (6 h): 3.9 meq/L; LDH (6 h): 173.2 IU/L; Na (6 h): 139.6 meq/L; PL (6 h): 138.8 mg/dL; RALB (6 h): 3.3 g/dL; TBIL (6 h): 0.1 mg/dL; TC (6 h): 71 mg/dL; TG (6 h): 68.8 mg/dL; TP (6 h): 5.5 g/dL; gamma-GTP (6 h): 0.8 IU/L; TERMINAL_BW (9 h): 220.3 g; APTT (9 h): 19.6 s; Bas (9 h): 0.4%; Eos (9 h): 0.8%; Fbg (9 h): 215.6 mg/dL; Hb (9 h): 13.8 g/dL; Ht (9 h): 38.2%; Lym (9 h): 74.6%; MCH (9 h): 21.6 pg; MCHC (9 h): 36.2%; MCV (9 h): 59.6 fL; Mono (9 h): 2.6%; Neu (9 h): 20.6%; PT (9 h): 12.4 s; Plat (9 h): 124.9 x10_4/uL; RBC (9 h): 640.6 x10_4/ul; Ret (9 h): 7.4%; WBC (9 h): 90 x10_2/uL; KIDNEY_L (9 h): 1 g; KIDNEY_R (9 h): 1 g; KIDNEY_TOTAL (9 h): 1.9 g; LIVER (9 h): 9.2 g; A/G (9 h): 1.6; ALP (9 h): 848.2 IU/L; ALT (9 h): 25.2 IU/L; AST (9 h): 60.4 IU/L; BUN (9 h): 10.4 mg/dL; CRE (9 h): 0.3 mg/dL; Ca (9 h): 10.4 mg/dL; Cl (9 h): 101 meq/L; DBIL (9 h): 0.064 mg/dL; GLC (9 h): 196.4 mg/dL; IP (9 h): 8.7 mg/dL; K (9 h): 3.9 meq/L; LDH (9 h): 154.4 IU/L; Na (9 h): 140.4 meq/L; PL (9 h): 129.8 mg/dL; RALB (9 h): 3.4 g/dL; TBIL (9 h): 0.1 mg/dL; TC (9 h): 64.4 mg/dL; TG (9 h): 55.6 mg/dL; TP (9 h): 5.5 g/dL; gamma-GTP (9 h): 0.6 IU/L; TERMINAL_BW (24 h): 234.5 g; APTT (24 h): 21 s; Bas (24 h): 0.8%; Eos (24 h): 1%; Fbg (24 h): 217.8 mg/dL; Hb (24 h): 13.5 g/dL; Ht (24 h): 37.2%; Lym (24 h): 77.8%; MCH (24 h): 22.2 pg; MCHC (24 h): 36.2%; MCV (24 h): 61.3 fL; Mono (24 h): 2.6%; Neu (24 h): 17.8%; PT (24 h): 11.8 s; Plat (24 h): 122.9 x10_4/uL; RBC (24 h): 607.6 x10_4/ul; Ret (24 h): 6.6%; WBC (24 h): 114.9 x10_2/uL; KIDNEY_L (24 h): 1.1 g; KIDNEY_R (24 h): 1.1 g; KIDNEY_TOTAL (24 h): 2.3 g; LIVER (24 h): 12 g; A/G (24 h): 1.6; ALP (24 h): 1006.8 IU/L; ALT (24 h): 39 IU/L; AST (24 h): 70.6 IU/L; BUN (24 h): 14.4 mg/dL; CRE (24 h): 0.4 mg/dL; Ca (24 h): 10.8 mg/dL; Cl (24 h): 102.4 meq/L; DBIL (24 h): 0.062 mg/dL; GLC (24 h): 183.4 mg/dL; IP (24 h): 7.3 mg/dL; K (24 h): 3.8 meq/L; LDH (24 h): 181.4 IU/L; Na (24 h): 142 meq/L; PL (24 h): 132.6 mg/dL; RALB (24 h): 3.4 g/dL; TBIL (24 h): 0.1 mg/dL; TC (24 h): 64 mg/dL; TG (24 h): 105.4 mg/dL; TP (24 h): 5.6 g/dL; gamma-GTP (24 h): 0.8 IU/L
